Experimental data reported in patent US8703768B2, “Nitrogen containing heteroaryl compounds” (Hoffmann-La Roche Inc., priority 2010, dated 2014).

What follows are compounds tested against human PDE10A (Homo sapiens (Human), UniProt Q9Y233) (assay: human PDE10A full length Scintillation Proximity Assay (SPA)). Conditions: 50 nM cGMP and 50 nM [3H]-cGMP, 20 minutes at room temperature; read-out: PDE10A inhibition IC50.
Type: biochemical
In short: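 Full-length enzyme incubated with compounds; reaction started with cGMP plus [^3H]-cGMP substrate and run 20 min at room temperature. Stopped with yttrium silicate SPA beads in 18 mM zinc sulphate, 1 h shaking, then scintillation counting; background from enzyme-free wells.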

human PDE10A, sequence (Q9Y233 other isoform, or with tags, fused parts or gaps): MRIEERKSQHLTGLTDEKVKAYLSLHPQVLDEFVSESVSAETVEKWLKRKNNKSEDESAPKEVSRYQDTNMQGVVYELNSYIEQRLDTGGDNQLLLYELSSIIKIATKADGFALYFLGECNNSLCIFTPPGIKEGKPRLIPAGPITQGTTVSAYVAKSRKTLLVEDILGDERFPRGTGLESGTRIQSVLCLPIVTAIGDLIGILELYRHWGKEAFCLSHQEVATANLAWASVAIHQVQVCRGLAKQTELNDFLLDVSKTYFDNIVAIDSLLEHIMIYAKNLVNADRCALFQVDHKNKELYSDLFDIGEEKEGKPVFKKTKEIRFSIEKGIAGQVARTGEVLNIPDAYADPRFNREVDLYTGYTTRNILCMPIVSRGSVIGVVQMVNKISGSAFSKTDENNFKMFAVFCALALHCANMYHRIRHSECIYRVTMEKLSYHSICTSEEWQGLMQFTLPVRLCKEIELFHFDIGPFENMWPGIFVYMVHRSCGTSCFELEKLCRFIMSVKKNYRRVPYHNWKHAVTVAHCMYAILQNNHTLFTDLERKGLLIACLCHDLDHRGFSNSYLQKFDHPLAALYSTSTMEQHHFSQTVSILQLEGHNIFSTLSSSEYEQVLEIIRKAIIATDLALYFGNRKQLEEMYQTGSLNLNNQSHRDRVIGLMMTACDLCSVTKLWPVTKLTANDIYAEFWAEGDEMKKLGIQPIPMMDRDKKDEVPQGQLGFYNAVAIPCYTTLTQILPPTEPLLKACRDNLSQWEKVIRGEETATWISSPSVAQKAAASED

| SMILES | IC50 [nM] |
| --- | --- |
| CC(C)OCCNC(=O)c1ccncc1NC(=O)c1nc(C2CC2)cnc1Nc1cncnc1 [Example 99, 6-Cyclopropyl-3-(pyrimidin-5-ylamino)-pyrazine-2-carboxylic acid [4-(2-isopropoxy-ethylcarbamoyl)-pyridin-3-yl]-amide] | 2.6 |
| CNC(=O)c1nn(C)cc1NC(=O)c1nc(C2CCOC2)cnc1Nc1cncnc1 (centres unmarked) [Example 102, 3-(Pyrimidin-5-ylamino)-6-(tetrahydro-furan-3-yl)-pyrazine-2-carboxylic acid (1-methyl-3-methylcarbamoyl-1H-pyrazol-4-yl)-amide] | 16.3 |
| CNC(=O)c1nn(C)cc1NC(=O)c1nc(C2CCCO2)ccc1Nc1cncnc1 (centres unmarked) [Example 103, 3-(Pyrimidin-5-ylamino)-6-(tetrahydro-furan-2-yl)-pyridine-2-carboxylic acid (1-methyl-3-methylcarbamoyl-1H-pyrazol-4-yl)-amide] | 58.7 |
| O=C(NC1COC1)c1ccncc1NC(=O)c1nc(C2CC2)cnc1Nc1cncnc1 [Example 106, 6-Cyclopropyl-3-(pyrimidin-5-ylamino)-pyrazine-2-carboxylic acid [4-(oxetan-3-ylcarbamoyl)-pyridin-3-yl]-amide] | 2.6 |
| CCn1cc(NC(=O)c2nc(C3CC3)cnc2Nc2cncnc2)c(C(=O)NC)n1 [Example 107, 6-Cyclopropyl-N-(1-ethyl-3-(methylcarbamoyl)-1H-pyrazol-4-yl)-3-(pyrimidin-5-ylamino)pyrazine-2-carboxamide] | 117 |
| CCn1cc(NC(=O)c2nc(C3CC3)cnc2Nc2cncnc2)c(C(=O)NCC2CCCO2)n1 (centres unmarked) [Example 108, 6-Cyclopropyl-N-(1-ethyl-3-((tetrahydrofuran-2-yl)methylcarbamoyl)-1H-pyrazol-4-yl)-3-(pyrimidin-5-ylamino)pyrazine-2-carboxamide] | 39.7 |
| Cn1cc(NC(=O)c2nc(C3CC3)cnc2Nc2cncnc2)c(C(=O)NCC2CCCO2)n1 (centres unmarked) [Example 109, 6-Cyclopropyl-N-(1-methyl-3-((tetrahydrofuran-2-yl)methylcarbamoyl)-1H-pyrazol-4-yl)-3-(pyrimidin-5-ylamino)pyrazine-2-carboxamide] | 18.9 |
| CN(CC(C)(C)O)C(=O)c1nn(C)cc1NC(=O)c1nc(C2CC2)cnc1Nc1cncnc1 [Example 111, 6-Cyclopropyl-N-(3-((2-hydroxy-2-methylpropyl)(methyl)carbamoyl)-1-methyl-1H-pyrazol-4-yl)-3-(pyrimidin-5-ylamino)pyrazine-2-carboxamide] | 15 |
| Cc1ncc(Nc2cncnc2)c(C(=O)Nc2cn(C)nc2C(=O)NCC(C)(C)O)n1 [Example 112, N-(3-(2-Hydroxy-2-methylpropylcarbamoyl)-1-methyl-1H-pyrazol-4-yl)-2-methyl-5-(pyrimidin-5-ylamino)pyrimidine-4-carboxamide] | 79.6 |
| CNC(=O)c1nn(C)cc1NC(=O)c1nc(C(C)O)cnc1Nc1cncnc1 (centres unmarked) [Example 115, 6-(1-Hydroxy-ethyl)-3-(pyrimidin-5-ylamino)-pyrazine-2-carboxylic acid (1-methyl-3-methylcarbamoyl-1H-pyrazol-4-yl)-amide] | 171 |
| CNC(=O)c1c(NC(=O)c2nc(C3CC3)cnc2Nc2cncnc2)cnn1C [Example 116, 6-Cyclopropyl-3-(pyrimidin-5-ylamino)-pyrazine-2-carboxylic acid (1-methyl-5-methylcarbamoyl-1H-pyrazol-4-yl)-amide] | 4.5 |
| COCCN(C)C(=O)c1ncccc1NC(=O)c1nc(C2CC2)cnc1Nc1cncnc1 [Example 117, 6-Cyclopropyl-3-(pyrimidin-5-ylamino)-pyrazine-2-carboxylic acid {2-[(2-methoxy-ethyl)-methyl-carbamoyl]-pyridin-3-yl}-amide] | 26.8 |
| COCCN(C)C(=O)c1ncncc1NC(=O)c1nc(C2CC2)cnc1Nc1cncnc1 [Example 118, 5-{[6-Cyclopropyl-3-(pyrimidin-5-ylamino)-pyrazine-2-carbonyl]-amino}-pyrimidine-4-carboxylic acid (2-methoxy-ethyl)-methyl-amide] | 89.7 |
| Cn1ncc(NC(=O)c2nc(C3CC3)cnc2Nc2cncnc2)c1C(=O)NCC(C)(C)O [Example 119, 6-Cyclopropyl-3-(pyrimidin-5-ylamino)-pyrazine-2-carboxylic acid [5-(2-hydroxy-2-methyl-propylcarbamoyl)-1-methyl-1H-pyrazol-4-yl]-amide] | 4.5 |
| CC1(NC(=O)c2ccncc2NC(=O)c2nc(C3CC3)cnc2Nc2cncnc2)COC1 [Example 121, 6-Cyclopropyl-3-(pyrimidin-5-ylamino)-pyrazine-2-carboxylic acid [4-(3-methyl-oxetan-3-ylcarbamoyl)-pyridin-3-yl]-amide] | 5.8 |
| CN(CC(C)(C)O)C(=O)c1ncncc1NC(=O)c1nc(C2CC2)cnc1Nc1cncnc1 [Example 122, 5-{[6-Cyclopropyl-3-(pyrimidin-5-ylamino)-pyrazine-2-carbonyl]-amino}-pyrimidine-4-carboxylic acid (2-hydroxy-2-methyl-propyl)-methyl-amide] | 45.3 |
| CN(CC(C)(C)O)C(=O)c1ncccc1NC(=O)c1nc(C2CC2)cnc1Nc1cncnc1 [Example 123, 6-Cyclopropyl-3-(pyrimidin-5-ylamino)-pyrazine-2-carboxylic acid {2-[(2-hydroxy-2-methyl-propyl)-methyl-carbamoyl]-pyridin-3-yl}-amide] | 9.6 |
| CC(C)(CO)NC(=O)c1ccncc1NC(=O)c1nc(C2CC2)cnc1Nc1cncnc1 [Example 125, 6-Cyclopropyl-3-(pyrimidin-5-ylamino)-pyrazine-2-carboxylic acid [4-(2-hydroxy-1,1-dimethyl-ethylcarbamoyl)-pyridin-3-yl]-amide] | 5.6 |
| CNC(=O)c1nn(C)cc1NC(=O)c1nc(NCCOC)ncc1Nc1cncnc1 [Example 126, 2-(2-Methoxy-ethylamino)-5-(pyrimidin-5-ylamino)-pyrimidine-4-carboxylic acid (1-methyl-3-methylcarbamoyl-1H-pyrazol-4-yl)-amide] | 122 |
| CNC(=O)c1nn(C)cc1NC(=O)c1nc(C2CCOC2)ccc1Nc1cncnc1 (centres unmarked) [Example 127, 3-(Pyrimidin-5-ylamino)-6-(tetrahydro-furan-3-yl)-pyridine-2-carboxylic acid (1-methyl-3-methylcarbamoyl-1H-pyrazol-4-yl)-amide] | 8.5 |
| CN(C)C(=O)c1ncccc1NC(=O)c1nc(C2CC2)cnc1Nc1cncnc1 [Example 129, 6-Cyclopropyl-3-(pyrimidin-5-ylamino)-pyrazine-2-carboxylic acid (2-dimethylcarbamoyl-pyridin-3-yl)-amide] | 6 |

Now those with a lower IC50, led by results:

| IC50 [nM] | SMILES |
| --- | --- |
| 0.4 | CC(C)(O)CNC(=O)c1ncccc1NC(=O)c1nc(C2CC2)cnc1Nc1cncnc1 [Example 98, 6-Cyclopropyl-3-(pyrimidin-5-ylamino)-pyrazine-2-carboxylic acid [2-(2-hydroxy-2-methyl-propylcarbamoyl)-pyridin-3-yl]-amide] |
| 2.5 | O=C(NC1CCOC1)c1ccncc1NC(=O)c1nc(C2CC2)cnc1Nc1cncnc1 (centres unmarked) [Example 100, 6-Cyclopropyl-3-(pyrimidin-5-ylamino)-pyrazine-2-carboxylic acid [4-(tetrahydro-furan-3-ylcarbamoyl)-pyridin-3-yl]-amide] |
| 1.5 | O=C(NCC1CCCO1)c1ccncc1NC(=O)c1nc(C2CC2)cnc1Nc1cncnc1 (centres unmarked) [Example 101, 6-Cyclopropyl-3-(pyrimidin-5-ylamino)-pyrazine-2-carboxylic acid {4-[(tetrahydro-furan-2-ylmethyl)-carbamoyl]-pyridin-3-yl}-amide] |
| 1.1 | CC(C)(O)CNC(=O)c1ccncc1NC(=O)c1nc(C2CC2)cnc1Nc1cncnc1 [Example 105, 6-Cyclopropyl-3-(pyrimidin-5-ylamino)-pyrazine-2-carboxylic acid [4-(2-hydroxy-2-methyl-propylcarbamoyl)-pyridin-3-yl]-amide] |
| 0.6 | CC(C)(O)CNC(=O)c1cc(F)c(F)cc1NC(=O)c1nc(C2CC2)cnc1Nc1cncnc1 [Example 110, 6-Cyclopropyl-3-(pyrimidin-5-ylamino)-pyrazine-2-carboxylic acid [4,5-difluoro-2-(2-hydroxy-2-methyl-propylcarbamoyl)-phenyl]-amide] |
| 1.6 | COC(C)(C)CNC(=O)c1ccncc1NC(=O)c1nc(C2CC2)cnc1Nc1cncnc1 [Example 113, 6-Cyclopropyl-3-(pyrimidin-5-ylamino)-pyrazine-2-carboxylic acid [4-(2-methoxy-2-methyl-propylcarbamoyl)-pyridin-3-yl]-amide] |
| 1.1 | COCC(C)(C)CNC(=O)c1ccncc1NC(=O)c1nc(C2CC2)cnc1Nc1cncnc1 [Example 114, 6-Cyclopropyl-3-(pyrimidin-5-ylamino)-pyrazine-2-carboxylic acid [4-(3-methoxy-2,2-dimethyl-propylcarbamoyl)-pyridin-3-yl]-amide] |
| 0.4 | CC(C)(O)CNC(=O)c1cnccc1NC(=O)c1nc(C2CC2)cnc1Nc1cncnc1 [Example 120, 6-Cyclopropyl-3-(pyrimidin-5-ylamino)-pyrazine-2-carboxylic acid [3-(2-hydroxy-2-methyl-propylcarbamoyl)-pyridin-4-yl]-amide] |
| 2.1 | CNC(=O)c1ccncc1NC(=O)c1nc(C2CC2)cnc1Nc1cncnc1 [Example 124, 6-Cyclopropyl-3-(pyrimidin-5-ylamino)-pyrazine-2-carboxylic acid (4-methylcarbamoyl-pyridin-3-yl)-amide] |
| 1.3 | CNC(=O)c1ncccc1NC(=O)c1nc(C2CC2)cnc1Nc1cncnc1 [Example 128, 6-Cyclopropyl-3-(pyrimidin-5-ylamino)-pyrazine-2-carboxylic acid (2-methylcarbamoyl-pyridin-3-yl)-amide] |
| 1.4 | CNC(=O)c1c(NC(=O)c2nc(C(C)C)cnc2Nc2cncnc2)cnn1C [Example 131, 6-Isopropyl-3-(pyrimidin-5-ylamino)-pyrazine-2-carboxylic acid (1-methyl-5-methylcarbamoyl-1H-pyrazol-4-yl)-amide] |
